From patent US20230024302A1, “2,3,5-TRISUBSTITUTED PYRAZOLO[1,5-A]PYRIMIDINE COMPOUNDS” (Arcus Biosciences, Inc., priority 2019, published 2023)

Columns and labels:
PI3Kγ (p120γ) = molecular target: T1, PI3Kγ (p120γ) (Homo sapiens, UniProt P48736); experiment: Inhibition of PI3K kinase activity (ADP Glo), PI3Kγ; conditions: Table 1, p120γ, read-out: biochemical potency (PI3Kγ IC50)
T1 construct: purchased Promega V1761
Summary of the method: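 IC50 values come from a 4-parameter nonlinear fit of ADP-Glo luminescence, which measures ADP produced as PIP2 is phosphorylated to PIP3. The p120γ enzyme (2× stock 8 nM) sat with compound 1 h at rt before substrate (2× stocks: 50 μM ATP, 0.1 mg/ml PIP2) was added. Phosphorylation then proceeded 60 min at rt.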

PI3Kγ = molecular target: T2, PI3Kγ (Homo sapiens, UniProt P48736); experiment: PI3Kγ cellular assay in THP-1 cells (AKT pS473 AlphaLISA); type: cell-based; conditions: Table 1, rhMCP-1 stimulated AKT pS473, read-out: cellular potency (PI3Kγ IC50)
T2 construct: host or cells: THP-1
T2 sequence (P48736 whole entry): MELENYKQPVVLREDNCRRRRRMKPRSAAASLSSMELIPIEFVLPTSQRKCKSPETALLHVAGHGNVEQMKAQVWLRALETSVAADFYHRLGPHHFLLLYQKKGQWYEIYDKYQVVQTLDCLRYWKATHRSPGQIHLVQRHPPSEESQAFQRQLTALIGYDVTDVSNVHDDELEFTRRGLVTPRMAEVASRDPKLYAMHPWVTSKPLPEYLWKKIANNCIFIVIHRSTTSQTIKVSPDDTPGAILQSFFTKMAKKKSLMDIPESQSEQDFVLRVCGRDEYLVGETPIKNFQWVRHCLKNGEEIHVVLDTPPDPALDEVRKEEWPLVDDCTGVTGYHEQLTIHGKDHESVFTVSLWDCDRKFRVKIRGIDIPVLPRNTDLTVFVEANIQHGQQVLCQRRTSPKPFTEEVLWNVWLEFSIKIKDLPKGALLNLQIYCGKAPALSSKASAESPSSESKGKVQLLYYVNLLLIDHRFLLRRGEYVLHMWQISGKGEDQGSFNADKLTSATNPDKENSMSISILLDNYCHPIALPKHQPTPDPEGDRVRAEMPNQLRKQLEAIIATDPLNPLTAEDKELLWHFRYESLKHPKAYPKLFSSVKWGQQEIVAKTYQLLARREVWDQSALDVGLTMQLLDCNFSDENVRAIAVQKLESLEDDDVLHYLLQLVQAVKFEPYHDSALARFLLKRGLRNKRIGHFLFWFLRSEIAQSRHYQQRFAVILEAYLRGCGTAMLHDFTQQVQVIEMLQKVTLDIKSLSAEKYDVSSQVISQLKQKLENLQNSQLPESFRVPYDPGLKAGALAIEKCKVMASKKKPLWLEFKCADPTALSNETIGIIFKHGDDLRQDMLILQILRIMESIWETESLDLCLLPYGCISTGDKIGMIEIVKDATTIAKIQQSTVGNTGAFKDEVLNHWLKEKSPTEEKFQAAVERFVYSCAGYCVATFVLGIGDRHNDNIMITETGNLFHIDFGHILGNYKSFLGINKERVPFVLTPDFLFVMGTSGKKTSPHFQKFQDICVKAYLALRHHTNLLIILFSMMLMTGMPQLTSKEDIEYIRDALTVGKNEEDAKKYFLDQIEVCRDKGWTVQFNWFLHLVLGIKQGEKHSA
Summary of the method: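 Endogenous AKT S473 phosphorylation, detected by AlphaLISA in lysates, serves as the PI3Kγ activity read-out in stimulated, serum-starved THP-1 cells (1.8×10^5/well).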

T1 sequence (P48736 whole entry): as above

Structure (SMILES)	IC50 (PI3Kγ (p120γ)) [nM]	IC50 (PI3Kγ) [nM]
C[C@H](CO)NC(=O)c1c(N)nn2ccc(-c3cc4c(c(NS(C)(=O)=O)c3)C(=O)N([C@@H](C)C3CC3)C4)nc12 [Example 93, 2-Amino-5-{2-[(1S)-1-cyclopropylethyl]-7-methanesulfonamido-1-oxo-2,3-dihydro-1H-isoindol-5-yl}-N-[(2R)-1-hydroxypropan-2-yl]pyrazolo[1,5-a]pyrimidine-3-carboxamide]	< 100	< 100
C[C@@H](C1CC1)N1Cc2cc(-c3ccn4nc(N)c(C(=O)NC(C)(C)CO)c4n3)cc(NS(C)(=O)=O)c2C1=O [Example 94, 2-Amino-5-{2-[(1S)-1-cyclopropylethyl]-7-methanesulfonamido-1-oxo-2,3-dihydro-1H-isoindol-5-yl}-N-(1-hydroxy-2-methylpropan-2-yl)pyrazolo[1,5-a]pyrimidine-3-carboxamide]	< 100	< 100
C[C@@H](C1CC1)N1Cc2cc(-c3ccn4nc(N)c(C(=O)NCCC(C)(C)O)c4n3)cc(NS(C)(=O)=O)c2C1=O [Example 95, 2-Amino-5-{2-[(1S)-1-cyclopropylethyl]-7-methanesulfonamido-1-oxo-2,3-dihydro-1H-isoindol-5-yl}-N-(3-hydroxy-3-methylbutyl)pyrazolo[1,5-a]pyrimidine-3-carboxamide]	< 100	< 100
CC(C)[C@H](CO)NC(=O)c1c(N)nn2ccc(-c3cc4c(c(NS(C)(=O)=O)c3)C(=O)N([C@@H](C)C3CC3)C4)nc12 [Example 96, 2-Amino-5-{2-[(1S)-1-cyclopropylethyl]-7-methanesulfonamido-1-oxo-2,3-dihydro-1H-isoindol-5-yl}-N-[(2R)-1-hydroxy-3-methylbutan-2-yl]pyrazolo[1,5-a]pyrimidine-3-carboxamide]	< 100	< 100
C[C@@H](C1CC1)N1Cc2cc(-c3ccn4nc(N)c(C(=O)N[C@@H](CO)C5CC5)c4n3)cc(NS(C)(=O)=O)c2C1=O [Example 97, 2-Amino-N-((R)-1-cyclopropyl-2-hydroxyethyl)-5-(2-((S)-1-cyclopropylethyl)-7-(methylsulfonamido)-1-oxoisoindolin-5-yl)pyrazolo[1,5-a]pyrimidine-3-carboxamide]	< 100	< 100
C[C@@H](NC(=O)c1c(N)nn2ccc(-c3cc4c(c(NS(C)(=O)=O)c3)C(=O)N([C@@H](C)C3CC3)C4)nc12)c1cnn(C)c1 [Example 98, 2-Amino-5-{2-[(1S)-1-cyclopropylethyl]-7-methanesulfonamido-1-oxo-2,3-dihydro-1H-isoindol-5-yl}-N-[(1R)-1-(1-methyl-1H-pyrazol-4-yl)ethyl]pyrazolo[1,5-a]pyrimidine-3-carboxamide]	< 100	< 100
C[C@@H](C1CC1)N1Cc2cc(-c3ccn4nc(N)c(C(=O)Nc5cccnc5)c4n3)cc(NS(C)(=O)=O)c2C1=O [Example 99, (S)-2-Amino-5-(2-(1-cyclopropylethyl)-7-(methylsulfonamido)-1-oxoisoindolin-5-yl)-N-(pyridin-3-yl)pyrazolo[1,5-a]pyrimidine-3-carboxamide]	< 100	< 100
C[C@@H](C1CC1)N1Cc2cc(-c3ccn4nc(N)c(C(=O)Nc5ccncc5)c4n3)cc(NS(C)(=O)=O)c2C1=O [Example 100, (S)-2-Amino-5-(2-(1-cyclopropylethyl)-7-(methylsulfonamido)-1-oxoisoindolin-5-yl)-N-(pyridin-4-yl)pyrazolo[1,5-a]pyrimidine-3-carboxamide]	< 100	< 100
Cc1cc(NC(=O)c2c(N)nn3ccc(-c4cc5c(c(NS(C)(=O)=O)c4)C(=O)N([C@@H](C)C4CC4)C5)nc23)ccn1 [Example 101, (S)-2-Amino-5-(2-(1-cyclopropylethyl)-7-(methylsulfonamido)-1-oxoisoindolin-5-yl)-N-(2-methylpyridin-4-yl)pyrazolo[1,5-a]pyrimidine-3-carboxamide]	< 100	< 100

Further lines, results first:

IC50 (PI3Kγ (p120γ)) [nM]	IC50 (PI3Kγ) [nM]	Structure (SMILES)
< 100	< 100	Cc1cc(NC(=O)c2c(N)nn3ccc(-c4cc5c(c(NS(C)(=O)=O)c4)C(=O)N([C@@H](C)C4CC4)C5)nc23)cc(C)n1 [Example 102, (S)-2-Amino-5-(2-(1-cyclopropylethyl)-7-(methylsulfonamido)-1-oxoisoindolin-5-yl)-N-(2,6-dimethylpyridin-4-yl)pyrazolo[1,5-a]pyrimidine-3-carboxamide]
< 100	< 100	C[C@@H](C1CC1)N1Cc2cc(-c3ccn4nc(N)c(C(=O)Nc5ccc(C(C)(C)O)nc5)c4n3)cc(NS(C)(=O)=O)c2C1=O [Example 103, 2-Amino-5-{2-[(1S)-1-cyclopropylethyl]-7-methanesulfonamido-1-oxo-2,3-dihydro-1H-isoindol-5-yl}-N-[6-(2-hydroxypropan-2-yl)pyridin-3-yl]pyrazolo[1,5-a]pyrimidine-3-carboxamide]
< 100	< 100	C[C@@H](C1CC1)N1Cc2cc(-c3ccn4nc(N)c(C(=O)Nc5ccccc5)c4n3)cc(NS(C)(=O)=O)c2C1=O [Example 104, (S)-2-Amino-5-(2-(1-cyclopropylethyl)-7-(methylsulfonamido)-1-oxoisoindolin-5-yl)-N-phenylpyrazolo[1,5-a]pyrimidine-3-carboxamide]
< 100	< 100	C[C@@H](C1CC1)N1Cc2cc(-c3ccn4nc(N)c(C(=O)Nc5ccc(CO)cc5)c4n3)cc(NS(C)(=O)=O)c2C1=O [Example 105, 2-Amino-5-{2-[(1S)-1-cyclopropylethyl]-7-methanesulfonamido-1-oxo-2,3-dihydro-1H-isoindol-5-yl}-N-[4-(hydroxymethyl)phenyl]pyrazolo[1,5-a]pyrimidine-3-carboxamide]
< 100	< 100	C[C@@H](C1CC1)N1Cc2cc(-c3ccn4nc(N)c(C(=O)Nc5cnn(CC(F)(F)F)c5)c4n3)cc(NS(C)(=O)=O)c2C1=O [Example 106, 2-Amino-5-{2-[(1S)-1-cyclopropylethyl]-7-methanesulfonamido-1-oxo-2,3-dihydro-1H-isoindol-5-yl}-N-[1-(2,2,2-trifluoroethyl)-1H-pyrazol-4-yl]pyrazolo[1,5-a]pyrimidine-3-carboxamide]
< 100	< 100	Cc1nn(C)cc1NC(=O)c1c(N)nn2ccc(-c3cc4c(c(NS(C)(=O)=O)c3)C(=O)N([C@@H](C)C3CC3)C4)nc12 [Example 107, 2-Amino-5-{2-[(1S)-1-cyclopropylethyl]-7-methanesulfonamido-1-oxo-2,3-dihydro-1H-isoindol-5-yl}-N-(1,3-dimethyl-1H-pyrazol-4-yl)pyrazolo[1,5-a]pyrimidine-3-carboxamide]
< 100	< 100	Cc1c(NC(=O)c2c(N)nn3ccc(-c4cc5c(c(NS(C)(=O)=O)c4)C(=O)N([C@@H](C)C4CC4)C5)nc23)cnn1C [Example 108, 2-Amino-5-{2-[(1S)-1-cyclopropylethyl]-7-methanesulfonamido-1-oxo-2,3-dihydro-1H-isoindol-5-yl}-N-(1,5-dimethyl-1H-pyrazol-4-yl)pyrazolo[1,5-a]pyrimidine-3-carboxamide]
< 100	100 to 1000	C[C@@H](C1CC1)N1Cc2cc(-c3ccn4nc(N)c(C(=O)Nc5ncn(C)n5)c4n3)cc(NS(C)(=O)=O)c2C1=O [Example 109, 2-Amino-5-{2-[(1S)-1-cyclopropylethyl]-7-methanesulfonamido-1-oxo-2,3-dihydro-1H-isoindol-5-yl}-N-(1-methyl-1H-1,2,4-triazol-3-yl)pyrazolo[1,5-a]pyrimidine-3-carboxamide]
< 100	< 100	CCS(=O)(=O)Nc1cc(-c2ccn3nc(N)c(C(=O)NC4CC4)c3n2)cc2c1C(=O)N([C@@H](C)C1CC1)C2 [Example 110, 2-Amino-N-cyclopropyl-5-{2-[(1S)-1-cyclopropylethyl]-7-ethanesulfonamido-1-oxo-2,3-dihydro-1H-isoindol-5-yl}pyrazolo[1,5-a]pyrimidine-3-carboxamide]
< 100	< 100	CCS(=O)(=O)Nc1cc(-c2ccn3nc(N)c(C(=O)N[C@H]4C[C@](C)(O)C4)c3n2)cc2c1C(=O)N([C@@H](C)C1CC1)C2 [Example 111, 2-Amino-5-{2-[(1S)-1-cyclopropylethyl]-7-ethanesulfonamido-1-oxo-2,3-dihydro-1H-isoindol-5-yl}-N-[trans-3-hydroxy-3-methylcyclobutyl]pyrazolo[1,5-a]pyrimidine-3-carboxamide]
< 100	< 100	CCS(=O)(=O)Nc1cc(-c2ccn3nc(N)c(C(=O)Nc4cccnc4)c3n2)cc2c1C(=O)N([C@@H](C)C1CC1)C2 [Example 112, 2-Amino-5-{2-[(1S)-1-cyclopropylethyl]-7-ethanesulfonamido-1-oxo-2,3-dihydro-1H-isoindol-5-yl}-N-(pyridin-3-yl)pyrazolo[1,5-a]pyrimidine-3-carboxamide]
< 100	< 100	COCCS(=O)(=O)Nc1cc(-c2ccn3nc(N)c(C(=O)NC4CC4)c3n2)cc2c1C(=O)N([C@@H](C)C1CC1)C2 [Example 113, 2-Amino-N-cyclopropyl-5-{2-[(1S)-1-cyclopropylethyl]-7-(2-methoxyethanesulfonamido)-1-oxo-2,3-dihydro-1H-isoindol-5-yl}pyrazolo[1,5-a]pyrimidine-3-carboxamide]
< 100	< 100	C[C@@H](C1CC1)N1Cc2cc(-c3ccn4nc(N)c(C(=O)NC5CC5)c4n3)cc(N(C)S(C)(=O)=O)c2C1=O [Example 114, 2-Amino-N-cyclopropyl-5-{2-[(1S)-1-cyclopropylethyl]-7-(N-methylmethanesulfonamido)-1-oxo-2,3-dihydro-1H-isoindol-5-yl}pyrazolo[1,5-a]pyrimidine-3-carboxamide]
